Consider 5 compounds from publication PMC12114571, “3-(3-Azabicyclo[2, 2, 1]heptan-2-yl)-1,2,4-oxadiazoles as Novel Potent DPP-4 Inhibitors to Treat T2DM” (Pharmaceuticals, 2025).

Test [1] has as its target T1, recombinant DPP-4 enzyme D4943 (Homo sapiens, UniProt P27487).
T1 construct: purchased Sigma-Aldrich D4943
The test is described as follows: DPP-4 enzyme inhibitory assay, chromogenic substrate Gly-Pro-pNA, absorbance at 405 nm. The conditions noted are these: 37 °C for 30 min, pH = 7.6, dilution range 10^−4 to 10^−11 M. It counts as biochemical. On the procedure: (§1) The assessment of DPP-4 enzyme inhibitory activities for the synthesised compounds was performed using protocols similar to those previously described in the literature. […] Following a brief incubation period (37 °C for 30 min), absorbance at 405 nm was measured. Initial optimisation of the procedure utilised reference compounds. […] Correspondingly, the analysis of inhibition activity for related enzymes was executed using DPP-8 and DPP-9 inhibition assays, where the compounds were studied in the dilution range 10^−2 to 10^−8 M (Table 2).
(§2) For the in vitro assays, we used the substrate Gly-Pro-p-nitroanilide (H-Gly-Pro pNA HCl, G0513) and recombinant dipeptidyl peptidase-4 enzyme (D4943), which were purchased from Sigma-Aldrich (St. Louis, MO, USA). Samples containing DPP-4 (0.0015 U/well) and varying concentrations of test compounds were incubated with the chromogenic peptide substrate, G0513 (90 µg/well), in a total volume of 100 µL of buffer system (50 mM Tris-HCl, 50 mM NaCl, 0.01% Triton, pH = 7.6). The mixtures were incubated at 37 ◦C for 30 min, and the absorbance at 405 nm was measured using the microplate reader ChemWell (Awareness Technology Inc., Palm City, FL, USA). The DPP-4 inhibitory activities for each test compound were calculated. IC50 values were obtained using GraphPad Prism 8 software. The inhibition activity analysis of the related enzymes was performed using the “Fluorogenic DPP-8 Assay Kit” and “Fluorogenic DPP-9 Assay Kit”, both purchased from BPS Bioscience (San Diego, CA, USA). The dilution range for every compound was 10^−2–10^−8 M.

Test [2] addresses T2, DPP-8 (Homo sapiens, UniProt Q6V1X1).
T2 construct: purchased BPS Bioscience
The test is described as follows: Fluorogenic DPP-8 Assay Kit inhibition assay. The conditions noted are these: for IC50: dilution range 10^−2 to 10^−8 M. It counts as biochemical. On the procedure:
as §1, §2

Test [3] has as its target T3, DPP-9 (Homo sapiens, UniProt Q86TI2).
T3 construct: purchased BPS Bioscience
The test is described as follows: Fluorogenic DPP-9 Assay Kit inhibition assay. Type of test: biochemical. The conditions noted are these: for IC50: dilution range 10^−2 to 10^−8 M. On the procedure:
as §1, §2

Test [4] addresses T1, recombinant DPP-4 enzyme D4943. Also on record: method as in PMID 35337071. The conditions noted are these: neogliptin reference value; cited from earlier work.
Test [5] has as its target T2, DPP-8. Also on record: method as in PMID 35337071. The conditions noted are these: neogliptin reference value; cited from earlier work.
The target of test [6] is T3, DPP-9. Also on record: method as in PMID 35337071. The conditions noted are these: neogliptin reference value; cited from earlier work.
Where [7] appears, read: concentration range 10^−3–10^−6 M.

The IC50 is the concentration needed to halve the response being measured.

Structures are written as SMILES. Like-named read-outs stand apart in the source and are kept apart here. Where only a bound is given, the exact number is not on record here.

T2 sequence (Q6V1X1 whole entry): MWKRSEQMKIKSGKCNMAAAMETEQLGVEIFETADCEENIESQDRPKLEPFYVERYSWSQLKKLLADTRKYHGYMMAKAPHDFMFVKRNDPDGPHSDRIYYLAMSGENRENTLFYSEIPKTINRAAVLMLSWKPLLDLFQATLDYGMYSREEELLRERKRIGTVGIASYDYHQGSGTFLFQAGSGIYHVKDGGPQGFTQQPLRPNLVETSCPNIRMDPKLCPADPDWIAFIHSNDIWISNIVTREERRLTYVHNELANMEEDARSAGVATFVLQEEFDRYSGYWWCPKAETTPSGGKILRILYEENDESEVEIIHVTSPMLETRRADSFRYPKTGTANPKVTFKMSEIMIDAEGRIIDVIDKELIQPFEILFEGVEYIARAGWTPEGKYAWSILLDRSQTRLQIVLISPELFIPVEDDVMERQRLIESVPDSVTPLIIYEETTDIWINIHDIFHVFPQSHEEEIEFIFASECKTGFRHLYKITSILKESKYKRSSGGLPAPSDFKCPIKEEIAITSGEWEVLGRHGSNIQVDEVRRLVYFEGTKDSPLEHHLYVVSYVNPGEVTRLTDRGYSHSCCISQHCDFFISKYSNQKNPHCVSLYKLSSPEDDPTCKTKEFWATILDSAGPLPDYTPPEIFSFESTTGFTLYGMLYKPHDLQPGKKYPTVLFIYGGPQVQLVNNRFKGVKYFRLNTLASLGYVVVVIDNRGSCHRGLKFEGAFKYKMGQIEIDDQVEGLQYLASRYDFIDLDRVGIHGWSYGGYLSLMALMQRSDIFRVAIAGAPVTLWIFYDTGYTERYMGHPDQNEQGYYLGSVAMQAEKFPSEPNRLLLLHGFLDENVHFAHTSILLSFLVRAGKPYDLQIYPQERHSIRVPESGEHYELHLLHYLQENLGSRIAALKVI
T1 sequence (P27487 whole entry): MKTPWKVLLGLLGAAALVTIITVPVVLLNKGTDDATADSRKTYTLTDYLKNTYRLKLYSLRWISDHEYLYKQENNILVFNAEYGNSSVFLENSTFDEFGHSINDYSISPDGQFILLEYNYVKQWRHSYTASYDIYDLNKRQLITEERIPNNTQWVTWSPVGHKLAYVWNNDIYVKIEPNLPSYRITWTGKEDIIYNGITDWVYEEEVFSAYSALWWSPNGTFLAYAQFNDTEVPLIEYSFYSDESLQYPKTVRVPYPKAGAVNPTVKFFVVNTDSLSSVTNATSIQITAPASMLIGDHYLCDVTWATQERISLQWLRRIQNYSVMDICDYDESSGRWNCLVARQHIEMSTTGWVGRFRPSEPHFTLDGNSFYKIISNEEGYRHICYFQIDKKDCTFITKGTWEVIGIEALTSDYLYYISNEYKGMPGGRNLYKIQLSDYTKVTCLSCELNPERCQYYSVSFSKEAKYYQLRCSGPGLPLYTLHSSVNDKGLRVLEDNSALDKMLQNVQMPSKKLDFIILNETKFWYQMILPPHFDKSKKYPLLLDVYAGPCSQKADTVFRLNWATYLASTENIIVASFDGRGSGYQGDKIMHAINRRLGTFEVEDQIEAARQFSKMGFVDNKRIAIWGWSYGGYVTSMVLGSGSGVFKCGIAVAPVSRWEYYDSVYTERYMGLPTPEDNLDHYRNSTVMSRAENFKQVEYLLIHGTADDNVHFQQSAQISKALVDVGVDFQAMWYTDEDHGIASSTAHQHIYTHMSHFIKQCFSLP
T3 sequence (Q86TI2 whole entry): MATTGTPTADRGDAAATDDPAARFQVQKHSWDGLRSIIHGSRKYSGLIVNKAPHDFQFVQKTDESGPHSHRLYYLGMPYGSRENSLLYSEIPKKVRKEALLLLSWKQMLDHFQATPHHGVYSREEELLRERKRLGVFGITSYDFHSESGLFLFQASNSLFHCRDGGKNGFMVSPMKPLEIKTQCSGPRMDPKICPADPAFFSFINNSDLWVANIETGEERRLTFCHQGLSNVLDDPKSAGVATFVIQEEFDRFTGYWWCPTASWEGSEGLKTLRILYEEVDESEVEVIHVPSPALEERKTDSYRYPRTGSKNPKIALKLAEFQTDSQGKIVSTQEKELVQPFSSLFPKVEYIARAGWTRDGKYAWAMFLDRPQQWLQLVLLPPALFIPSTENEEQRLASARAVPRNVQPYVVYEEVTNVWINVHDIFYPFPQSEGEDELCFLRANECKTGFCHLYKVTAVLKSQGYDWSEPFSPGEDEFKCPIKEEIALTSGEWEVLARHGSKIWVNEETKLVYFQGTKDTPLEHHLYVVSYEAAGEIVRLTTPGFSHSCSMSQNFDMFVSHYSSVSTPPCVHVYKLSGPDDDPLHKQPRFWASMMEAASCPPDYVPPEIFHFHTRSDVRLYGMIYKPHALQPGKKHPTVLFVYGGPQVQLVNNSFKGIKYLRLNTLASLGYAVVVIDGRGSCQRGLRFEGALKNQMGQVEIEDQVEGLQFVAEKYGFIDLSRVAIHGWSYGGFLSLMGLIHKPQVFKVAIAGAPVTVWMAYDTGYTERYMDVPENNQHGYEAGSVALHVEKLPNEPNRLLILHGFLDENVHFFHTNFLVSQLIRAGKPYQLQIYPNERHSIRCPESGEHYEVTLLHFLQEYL

As for `N[C@@H](CC(=O)N1C2CCC(C2)[C@@H]1c1noc(-c2ccccc2)n1)Cc1cc(F)c(F)cc1F` (stereo partly drawn) [3b, (3R)-3-Amino-1-[(3R)-3-(5-phenyl-1,2,4-oxadiazol-3-yl)-2-azabicyclo[2.2.1]heptan-2-yl]-4-(2,4,5-trifluorophenyl)butan-1-one], the 50% inhibitory concentration (IC50) (in test [1]; against DPP-8 [2]; against DPP-9 [3]) was greater than 1000 nM in each case.

Turning to `N[C@@H](CC(=O)N1C2CCC(C2)[C@@H]1c1nc(-c2ccccc2)no1)Cc1cc(F)c(F)cc1F` (stereo partly drawn) [9b, (3R)-3-Amino-1-[(3R)-3-(3-phenyl-1,2,4-oxadiazol-5-yl)-2-azabicyclo[2.2.1]heptan-2-yl]-4-(2,4,5-trifluorophenyl)butan-1-one], the IC50 (in test [1]; at DPP-8 [2]; on DPP-9 [3]) was greater than 1000 nM in each case.

Turning to `N[C@@H](CC(=O)N1C2CCC(C2)[C@H]1c1nc(-c2ccccc2)no1)Cc1cc(F)c(F)cc1F` (stereo partly drawn) [9a, (3R)-3-Amino-1-[(3S)-3-(3-phenyl-1,2,4-oxadiazol-5-yl)-2-azabicyclo[2.2.1]heptan-2-yl]-4-(2,4,5-trifluorophenyl)butan-1-one], the values for the half-maximal inhibitory concentration (IC50) (in test [1]; at DPP-8 [2]; on DPP-9 [3]) were 4.3 nM, greater than 1000 nM and greater than 1000 nM, respectively. In addition, the “DPP-8 inhibitory activity (in words)” value at DPP-8 [2] (setting [7]) is recorded as “did not mediate any substantial inhibition”. At DPP-9 [3] (setting [7]), the “DPP-9 inhibitory activity (in words)” value is given as “did not mediate any substantial inhibition”.

For `N[C@@H](CC(=O)N1C2CCC(C2)[C@H]1c1noc(-c2ccccc2)n1)Cc1cc(F)c(F)cc1F` (stereo partly drawn) [3a, (3R)-3-Amino-1-[(3S)-3-(5-phenyl-1,2,4-oxadiazol-3-yl)-2-azabicyclo [2.2.1]heptan-2-yl]-4-(2,4,5-trifluorophenyl)butan-1-one], the IC50 in test [1] is 21.6 nM; at DPP-8 [2], greater than 1000 nM; at DPP-9 [3] it was greater than 1000 nM.

On to `N#CC1C2CCC(C2)N1C(=O)CC(N)Cc1cc(F)c(F)cc1F` (centres unmarked) [Neogliptin, neogliptin], for which the IC50 in test [4] was 16.8 nM; at DPP-8 [5], greater than 1000 nM; at DPP-9 [6], greater than 1000 nM.
